Converted amounts (≈) assume the structure as drawn. Like-named read-outs stand apart in the source and are kept apart here.

For orientation: IC50 means the concentration that inhibits the measured activity by half.

Series [1] addresses α-glucosidase. Set-up: method as in PMID 25735900. The conditions noted are these: cited from earlier work; for IC50: purified from S. japonicas, read-out: IC50 against α-glucosidase; for α-glucosidase inhibitory activity: purified from internal organs of S. japonicus.
Series [2] deals with α-glucosidase. Set-up: method as in PMID 22416705. Particulars: cited from earlier work; for IC50 against α-glucosidase: fatty acids from body wall of S. japonicus; for α-glucosidase inhibitory activity: purified from body wall of S. japonicus.
For series [3], the target named is α-glucosidase from Saccharomyces cerevisiae. The series can be described thus: α-glucosidase inhibition assay (PNPG substrate). Particulars: commercial pure fatty acids; acarbose positive control; three repeats; read-out: IC50 against α-glucosidase. The class given is biochemical. Here is the method: The reference standard for the GC-MS analysis was a Supelco 37 Component FAME mix from Sigma Aldrich (Sigma-Aldrich Chemie GmbH, Steinheim, Germany). Pure fatty acids, including palmitoleic acid (≥98.5%), arachidonic acid, and eicosapentaenoic acid (≥99%), were purchased from Sigma Aldrich (Sigma-Aldrich Chemie GmbH, Steinheim, Germany).
The α-glucosidase inhibition was assessed using the method described by Su et al. (2013 and Trinh et al. (2016), with a slight modification. In total, 100 μL of the α-glucosidase enzyme solution from Saccharomyces cerevisiae (0.2 U/mL in a 0.1 M phosphate buffer at pH 6.8) and 50 μL of the sample dissolved in the phosphate buffer containing 6% DMSO 0.25–20 mg/mL), and were incubated in a transparent 96-well plate at 37 °C for 15 min. Next, 50 μL of PNPG (5 mM in a 0.1 m phosphate buffer) was added. The PNPG was hydrolyzed to release p-nitrophenyl (PNP), and this process was monitored at 405 nm for 30 min at 37 °C, with a BioTek Eon microplate reader (Winooski, VT, USA)) using the Gen5 version 2.06 software. […] The IC50 values were calculated with GraphPad Prism 6 software (GraphPad Software Inc, La Jolla, CA, USA). The IC50 values were subjected to one-way analysis of variance (ANOVA) and the Tukey post hoc test, using GraphPad Prism 6 software to assess any significant differences among the treatments. P-values < 0.05 were considered significant.

In series [4] the target is α-glucosidase. Set-up: method as in PMID 23355366. The conditions noted are these: read-out: IC50 against α-glucosidase; cited from earlier work.
Series [5] can be described thus: solubility in NMR solvent. The conditions noted are these: noticed when preparing the compounds for NMR analysis.
The subject of series [6] is α-glucosidase. More on the design: method as in PMID 26932154. Particulars: cited from earlier work.
The next series concerns diabetic mice. Set-up: method as in PMID 26932154. The conditions noted are these: treatment of diabetic mice; cited from earlier work.

Regarding `CCCCCC/C=C\CCCCCCCC(=O)OCC(O)COC(=O)CCCCCCC/C=C\CCCCCC` [1,3-Dipalmitolein], at α-glucosidase [1], the IC50 is 4.45 µM and the α-glucosidase inhibitory activity entry is reported as “strong”.

Consider `CCCCCCC/C=C\C/C=C\CCCCCC(=O)O` [7(Z),10(Z)-octadecadienoic acid], for which, on α-glucosidase [2], the “IC50 against α-glucosidase” value was 0.49 ± 0.05 µg/mL (≈ 1.75 µM) and the α-glucosidase inhibitory activity entry is on record as “strong”.

In the case of `CCCCCCCCCC/C=C\CCCCCC(=O)O` [7(Z)-octadecenoic acid], on α-glucosidase [2], the “IC50 against α-glucosidase” value is listed as 0.51 ± 0.02 µg/mL (≈ 1.81 µM) and the α-glucosidase inhibitory activity entry is given as “strong”.

Consider `CCCCC/C=C\C/C=C\C/C=C\C/C=C\CCCC(=O)O` [Arachidonic acid], for which the IC50 in series [3] is 596 ± 44 µM; at α-glucosidase [4], 211 ± 2 µM.

On to `CC/C=C\C/C=C\C/C=C\C/C=C\C/C=C\CCCC(=O)O` [Eicosapentaenoic acid], for which, in series [3], the IC50 came out at 541 ± 39 µM.

For the compound `CCCCCC/C=C\CCCCCCCC(=O)O` [Palmitoleic acid], the 50% inhibitory concentration (IC50) in series [3] is 320 ± 32 µM; at α-glucosidase [4], 265 ± 2 µM.

As for `CCCCCCCC/C=C\CCCCCCCC(=O)O` [cis-9-octadecenoic acid], on α-glucosidase [1], the IC50 was 14.9 µM and the α-glucosidase inhibitory activity entry is listed as “strong”.

Consider `CC1OC(OC2C(OC3CCC4(C)C5=CC(O)C67C(=O)OC(C)(C8CCC(C)(C)O8)C6(O)CCC7(C)C5CCC4C3(C)C)OCC(O)C2O)C(O)C(O)C1O` (stereo not drawn) [compound 1, desholothurin B], for which the “solubility in methanol-d4” value in series [5] is listed as “soluble”.

`COC1C(O)C(CO)OC(OC2C(O)C(CO)OC(OC3C(C)OC(OC4C(OC5CCC6(C)C7=CC(O)C89C(=O)OC(C)(CCCC(C)C)C8(O)CCC9(C)C7CCC6C5(C)C)OCC(OS(=O)(=O)O)C4O)C(O)C3O)C2O)C1O.[Na+]` (stereo not drawn) [echinoside A]: in the series on α-glucosidase [6], the α-glucosidase activity entry is listed as “inhibited”. Also, the “postprandial blood glucose levels” value in the series on diabetic mice is recorded as “suppressed postprandial blood glucose levels”.

For the compound `CO[C@@H]1[C@@H](O)[C@H](O[C@@H]2[C@@H](O)[C@H](O[C@H]3[C@H](O)[C@@H](O)[C@H](O[C@H]4[C@H](O[C@H]5CC[C@]6(C)C7=C[C@H](O)[C@@]89C(=O)O[C@@](C)(C%10CCC(C)(C)O%10)[C@@]8(O)CC[C@@]9(C)[C@@H]7CC[C@H]6C5(C)C)OC[C@@H](OS(=O)(=O)O)[C@@H]4O)O[C@@H]3C)O[C@H](CO)[C@H]2O)O[C@H](CO)[C@H]1O` (stereo partly drawn) [holothurin A], in the series on α-glucosidase [6], the α-glucosidase activity result is given as “inhibited”. In addition, the “postprandial blood glucose levels” value in the series with diabetic mice is recorded as “suppressed postprandial blood glucose levels”.

Values taken from article PMC9960930, “Saponin and Fatty Acid Profiling of the Sea Cucumber Holothuria atra, α-Glucosidase Inhibitory Activity and the Identification of a Novel Triterpene Glycoside” (Nutrients, 2023).
